species on record: Cavia porcellus; assay: Tested for analgesic activity in the guinea pig ileum preparation relative to normorphine (1); format: functional

Structure (SMILES)	Relative activity
CN1CCC23c4c5ccc(O)c4O[C@H]2C(=O)C=C[C@@]3(Br)C1C5 (stereo partly specified)	0.4
CN1CCC23c4c5ccc(O)c4O[C@H]2C(=O)C=C[C@@]3(Cl)C1C5 (stereo partly specified)	0.5
CN1CCC23c4c5ccc(O)c4O[C@H]2[C@@H](O)C=C[C@@]3(S)C1C5 (stereo partly specified)	0.4
CC(=O)N[C@@]12C=C[C@H](OC(C)=O)[C@@H]3Oc4c(O)ccc5c4C31CCN(C)C2C5 (stereo partly specified)	0.6
CN1CCC23c4c5ccc(O)c4O[C@H]2[C@@H](O)C=C[C@@]3(O)C1C5 (stereo partly specified)	0.8
CN1CCC23c4c5ccc(O)c4O[C@H]2C(=O)C=C[C@@]3([N+](=O)[O-])C1C5 (stereo partly specified)	0.006

— ChEMBL document CHEMBL1121386, “Synthesis and analgesic activity of some 14 beta-substituted analogues of morphine” (1980)
